The record followed here is ChEMBL document CHEMBL3045383, “Synthesis, characterization, anticancer activity, and QSAR-studies of some new tetrahydropyrimidines” (2011).

What all share (format): functional
Assay [1] deals with IGROV-1. The assay is described as follows: Cytotoxicity against Homo sapiens (human) IGROV1 cells after 48 hr by SRB assay. To be noted: IGROV-1, 48 h.
Assay [2] relates to COLO 205. The assay is described as follows: Cytotoxicity against Homo sapiens (human) COLO205 cells after 48 hr by SRB assay. To be noted: COLO 205, 48 h.
For assay [3], the system named is SK-MEL-5. The assay is described as follows: Cytotoxicity against Homo sapiens (human) SK-MEL-5 cells after 48 hr by SRB assay. The note with it: SK-MEL-5, 48 h.
The subject of assay [4] is SF-268. The assay is described as follows: Cytotoxicity against Homo sapiens (human) SF268 cells after 48 hr by SRB assay. To be noted: SF-268, 48 h. On the technique in general: Sulforhodamine B stains cellular protein and so reports cell mass.
Assay [5] relates to HOP-92. The assay is described as follows: Cytotoxicity against Homo sapiens (human) HOP92 cells after 48 hr by SRB assay. The note with it: HOP-92, 48 h.
In assay [6] the test system is CAKI-1. The assay is described as follows: Cytotoxicity against Homo sapiens (human) CAKI-1 cells after 48 hr by SRB assay. The note with it: CAKI-1, 48 h.
For assay [7], the system named is NCI/ADR-RES. The assay is described as follows: Cytotoxicity against Homo sapiens (human) NCI/ADR-RES cells after 48 hr by SRB assay.
For assay [8], the system named is HL-60(TB). The assay is described as follows: Cytotoxicity against Homo sapiens (human) HL-60(TB) cells after 48 hr by SRB assay. The note with it: HL-60, 48 h.
Assay [9] concerns PC-3. The assay is described as follows: Cytotoxicity against Homo sapiens (human) PC3 cells after 48 hr by SRB assay. The note with it: PC-3, 48 h.

Broadly, the GI50 is the concentration at which growth is held to half of that of the control. `CC1=C(C(=O)Nc2ccc(Cl)c(Cl)c2)C(c2ccccc2O)NC(=O)N1` (stereo not drawn): the GI50 is 25.1 µM in assay [1]; 28.2 µM in [2]; 12.6 µM in assay [3]; 28.2 µM in assay [4]; 50.1 µM in assay [5]; 39.8 µM in assay [6]. The GI50 in assay [7] was 17.8 µM; in [8], 50.1 µM; in assay [9], 33.9 µM.
In the case of `CC1=C(C(=O)Nc2ccc(F)c(Cl)c2)C(c2cccc(Oc3ccccc3)c2)NC(=O)N1` (stereo not drawn), the GI50 in [1] was 7.94 µM; in assay [2], 6.31 µM; in assay [3], 7.59 µM; in assay [4] it was 8.51 µM; in [5] it was 40.7 µM; in [6] it was 10 µM. Further, the GI50 in [7] is 16.2 µM; in assay [8] it was 13.8 µM; in [9] it was 22.4 µM.
As for `CC1=C(C(=O)Nc2ccc(F)c(Cl)c2)C(c2cccc(O)c2)NC(=S)N1` (stereo not drawn), the GI50 in assay [1] is 22.9 µM; in assay [2], 22.4 µM; in [3], 11.2 µM; in assay [4] it was 17.8 µM; in assay [5] it was 50.1 µM; in [6], 50.1 µM. Further, the figures for the GI50 in assay [7], in [8] and in assay [9] were 17 µM, 25.7 µM and 25.1 µM, respectively.
Consider `CC1=C(C(=O)Nc2ccc(F)c(Cl)c2)C(c2cccc(Oc3ccccc3)c2)NC(=S)N1` (stereo not drawn), for which the GI50 was 10.7 µM in assay [1]; 17.8 µM in [2]; 8.91 µM in assay [3]; 8.91 µM in assay [4]; 20.9 µM in [5]; 12.6 µM in assay [6]. The GI50 in [7] is 15.5 µM; in [8], 17.4 µM; in [9], 12 µM.
With `CC1=C(C(=O)Nc2ccc(F)c(Cl)c2)C(c2ccccc2Cl)NC(=S)N1` (stereo not drawn), the GI50 in assay [1] is 17.8 µM; in assay [2], 24 µM; in [3] it was 12.3 µM; in [4] it was 14.8 µM; in assay [5], 50.1 µM; in assay [6] it was 31.6 µM. Also, the GI50 in assay [7] is 16.6 µM; in assay [8] it was 25.7 µM; in [9], 20.4 µM.
In the case of `COc1cccc(C2NC(=S)NC(C)=C2C(=O)Nc2ccc(Cl)c(Cl)c2)c1` (stereo not drawn), the GI50 in assay [1] was 15.8 µM; in assay [2], 9.33 µM; in [3], 9.55 µM; in [4], 12.6 µM; in assay [5], 12.6 µM; in assay [6] it was 17.8 µM. Moreover, the concentration for 50% growth inhibition (GI50) in assay [7] was 16.6 µM; in assay [8], 49 µM; in [9], 14.5 µM.
With `CC1=C(C(=O)Nc2ccc(Cl)c(Cl)c2)C(c2cccc(O)c2)NC(=S)N1` (stereo not drawn), the GI50 was 19.1 µM in assay [1]; 7.08 µM in assay [2]; 10 µM in assay [3]; 15.8 µM in assay [4]; 13.5 µM in [5]; 22.4 µM in [6]. Moreover, the GI50 in assay [7] is 15.8 µM; in assay [8], 11.2 µM; in assay [9], 14.1 µM.
With `CC1=C(C(=O)Nc2ccc(Cl)c(Cl)c2)C(c2cccc(Oc3ccccc3)c2)NC(=S)N1` (stereo not drawn), the GI50 in assay [1] is 7.76 µM; in assay [2], 9.33 µM; in [3], 7.94 µM; in assay [4] it was 6.17 µM; in assay [5], 13.2 µM; in [6] it was 8.51 µM. For the same compound, the GI50 was 15.5 µM in assay [7], 83.2 µM in assay [8] and 9.77 µM in assay [9].
As to `CC1=C(C(=O)Nc2ccc(Cl)c(Cl)c2)C(c2cccc(Cl)c2)NC(=O)N1` (stereo not drawn), the GI50 in assay [1] was 10.5 µM; in assay [2], 7.94 µM; in assay [3], 9.55 µM; in assay [4], 11.2 µM; in assay [5], 45.7 µM; in [6], 12.6 µM. Besides, the results for the GI50 in assay [7], in assay [8] and in assay [9] were 16.6 µM, 13.5 µM and 50.1 µM, respectively.
For the compound `CC1=C(C(=O)Nc2ccc(F)c(Cl)c2)C(c2cccc(Cl)c2)NC(=S)N1` (stereo not drawn), the GI50 in [1] was 14.1 µM; in assay [2] it was 4.17 µM; in assay [3], 8.32 µM; in assay [4] it was 10 µM; in [5], 32.4 µM; in assay [6], 39.8 µM. The values for the GI50 in assay [7], in assay [8] and in assay [9] were 15.8 µM, 16.2 µM and 25.1 µM, respectively.
`CC1=C(C(=O)Nc2ccc(Cl)c(Cl)c2)C(c2ccccc2Cl)NC(=S)N1` (stereo not drawn): the GI50 in [1] was 15.8 µM; in [2], 7.94 µM; in assay [3], 10 µM; in [4], 8.91 µM; in assay [5], 1.2 µM; in assay [6], 17.8 µM. Also, the GI50 in [7] was 15.8 µM; in [8], 15.5 µM; in assay [9], 20 µM.
For the compound `COc1cccc(C2NC(=S)NC(C)=C2C(=O)Nc2ccc(F)c(Cl)c2)c1` (stereo not drawn), the GI50 is 27.5 µM in assay [1]; 26.9 µM in assay [2]; 13.2 µM in [3]; 18.2 µM in assay [4]; 50.1 µM in [5]; 49 µM in assay [6]. In addition, the GI50 in [7] is 15.5 µM; in [8] it was 17.4 µM; in [9], 23.4 µM.
